Columns and labels:
[1] = system: 14-d-old rat pups; assay: Small intestine length and weight, Creon with anti-inflammatory drug pre-treatment, Example 2; format: in vivo; settings: for Small intestine Distal wt / Small intestine Length / Small intestine Proximal wt: drug 0.01 mg/g b.wt per day, then water (no Creon)
Procedure: (§1) In both of the following experiments 14-d-old pups were weighed and divided into groups and further to subgroups depending on the aim of each experiment. Pups were fed intragastrically via a feeding tube (0.96 mm outer diameter, PE50, Becton Dickinson, Sparks, Md., USA), in a volume 0.01 mL/g b.wt. The dose(s) for each pup was repeated once daily in corresponding manner for three days (14, 15, 16-d-old).
(§2) At 17 days of age, all the pups were separated from their dams and then anesthetized by a subcutaneous injection of a mixture of Azaperone® (Stresnil; Janssen Pharmaceutica, Beerse, Belgium), 30 μg/g body weight (b.wt), and Ketamine® (Ketalar; Pfizer, New York, N.Y., USA), 170 μg/g b.wt. Once sure of anesthesia, the abdomen and thorax were then opened, euthanized via heart puncture. The small intestine was, after it was dissected out, length measured and then divided into two equally long proximal and distal parts, both of which were flashed with cold saline followed by a measurement of each one's weight. A 2 cm piece was collected from the midsection of the distal part and fixed in bouin's solution for 24 hr at room temperature for morphological changes measurements, while the rest parts of it were immediately frozen on dry ice and stored for functional analysis.
In order to compensate for individual variations in BW, the organ measurements are presented per g BW. All data are presented as mean values and standard deviations. Statistical comparisons between all groups were carried out using a one-way ANOVA analysis (SigmaStat 2.0; Jandel Scientific, San Rafael, Calif., USA) with all pairwise multiple-comparison procedures (Student Newman-Keuls method). Differences were considered to be significant when P<0.05.
(§3) The 2nd exp. includes four litters; all pups (n=36) were randomly divided into two groups (Creon: 150 mg of capsule (lipase 10 000 USP, potease 37 500 USP, amylase 33 200 USP and water), the dose of Creon was 1.5 mg/g b.wt), then each group divided into subgroup pretreated one hour prior to enzyme feeding with anti-inflammatory drugs, Ibuprofen or Celecoxib (celecoxib; Pfizer, New York, N.Y., USA) the dose of drugs was 0.01 mg/g b.wt per day for both, diluted to give volume 0.01 mL/g b.wt. Thus six groups were obtained water/water, Ibupofen/water, Celecoxib/water, water/Creon, Ibuprofen/Creon and Celecoxib/Creon.

[2] = system: 14-d-old rat pups; assay: Morphometry of mature enterocytes along villi, Creon with drug pre-treatment, Example 2; format: in vivo; settings: for Mature epithelium: drug 0.01 mg/g b.wt per day, then water (no Creon)
Procedure: as §1, §2
All the samples from the distal SI were embedded into paraffin, cut laterally into […] thick sections, deparaffinated, and stained with hematoxylin and eosin according to standard procedures. All the samples were then imaged by using an Olympus PROVIS microscope (objective ×10) utilizing an Olympus DP50 camera (Olympus, Tokyo, Japan). Morphomertic analysis by measuring the ratio of the length of the adult-like epithelium to whole villi length was done by using ImageJ 1.36 program (National Institute of Health, Bethesda, Md.). […]

[3] = system: 14-d-old rat pups; assay: Disaccharidase activity in distal intestinal homogenates, Creon with drug pre-treatment, Example 2; format: in vivo; settings: for Disaccharidase specific activity, Lactase / Disaccharidase specific activity, Maltase / Disaccharidase specific activity, Sucrase: drug alone, then water (no Creon), distal part
Procedure: as §1, §2
The distal part of the small intestine was homogenized in cold 0.9% NaCl (1:10 w/v). Then, the disaccharidase activities were measured by the Dahlqvist A method, by incubating the homogenates with the appropriate disaccharide for 1 h at 37° C., thereafter the liberated glucose was measured by using a glucose oxidase reagent (Sigma chemicals), as described in Dahlqvist, A, in 1984 (Assay of intestinal disaccharidases, Scand J Clin Lab Invest, 1984; 44: 169-172).
The protein contents were determined by the method of Lowry et al (Lowry O H, Rosebrough N J, Farr A L & Randall R J Protein measurement with the Folin phenol reagent, J Biol Chem; 1951:193, 265-275.), modified for 96-well microplates as described in Pierzynowsk et al (Pierzynowsk S G, Westrom B R, Svendsen J & Karlsson B W. Development of exocrine pancreas function in chronically cannulated pigs during 1-13 weeks of postnatal life. J Pediatr Gastroenterol Nutr 1990; 10:206-212), and using serial dilutions of BSA (Sigma chemicals) as a standard.
as §3

[4] = cited from earlier work
[5] = system: suckling rats; assay: Papain vs microbial protease: macromolecule absorption (BSA, BIgG in plasma), Example 8; format: in vivo, Rattus norvegicus; settings: in words (FIG. 14)
Text: (§4) The litter size for each dam was limited to 12 or 13 pups, to reduce variability.
(§5) Suckling pups were divided into 3 groups depending on the treatments; microbial protease as a positive control, water as negative control and enzyme from papaya fruit (papain) (in total; protease=7, papain=8, control=7). The enzymes are available in the market in form of powders and were resolved in distilled water prior to stomach feeding during 14-16 d of age. The administered dose for each enzyme was 10000 USP/animal. The volume of administered enzymes and water (for control groups) was 0.01 ml/g b.wt. Prior to the feeding procedure, the pups were weighed. […] Three hours later, the pups were anaesthetized and organs were dissected out for analyses.

[6] = system: suckling rats; assay: Set I: intestinal morphology of distal SI, Example 3; format: in vivo, Rattus norvegicus; settings: distal part of SI, day 17
Procedure: All samples collected for histology were fixed with Bouin's solution for 24 hours and then stored in 70% ethanol, dehydrated, embedded into the paraffin and then cut into sections with 5 μm thickness. The tissue sections were transferred onto the slides, rehydrated and stained with H&E according to the standard technique. After mounting under cover slips samples were examined using light microscopy to estimate ratio between total length of the villus and length of the adult type enterocytes using ImageJ program.

[7] = system: suckling rats; assay: Set I: brush-border disaccharidase activity in proximal SI, Example 3; format: in vivo, Rattus norvegicus; settings: proximal part of SI, in words (FIG. 5)
Procedure: The proximal samples of the SI were de-frozen and weighted and then homogenized with 9 parts of 0.9% NaCl (9 w/v). The homogenates (50 μl diluted samples) were incubated with the appropriate disaccharide (50 μl of 0.056M sucrose, maltose and lactose) for 1 hour at 37° C. After this, the liberated glucose was determined by adding glucose oxidase reagent (Sigma Chemicals), and incubated for 30 minutes. Then samples were transferred into the 96-well plate in triplication and the absorbance was measured at 450 nm. To measure the protein contents of the homogenates, Lowry method, was used, where BSA (Bovine Serum Albumin) was used as a standard. The results are presented as specific activity units per mg of protein (u/mg).

[8] = system: suckling rats; assay: Set I: plasma concentration of marker molecules BSA and BIgG (macromolecule absorption), Example 3; format: in vivo, Rattus norvegicus; settings: 3 hours after marker feeding, day 17, in words (FIG. 6)
Text: The plasma level of marker molecules was quantified by using immunoassay rocket electrophoresis and SRI (single radial immunodiffusion) for plasma BSA and BIgG respectively.

[9] = system: young rats; assay: Growth of young rats treated with microbial amylase or lipase, Example 7; format: in vivo; settings: 10 000 USP for amylase/rat, days 14-16, in words (FIG. 11)
Procedure: This study was done to consider the effect of separated enzymes on body growth. The experiment is completing study done earlier to investigate effects of protease on body growth and was performed in similar mode (see experiment 3-5 above).
Suckling pups were divided into 3 groups depending on the treatment; amylase, lipase and water (n=7 per group). The enzymes are available in the market in form of powders and were resolved in distilled water prior to stomach feeding during 14-16 d of age, ones a day. The administered dose for each single enzyme feeding was 4 000 USP for lipase/rat and 10 000 USP for amylase/rat. The control group received vehicle.

[10] = system: suckling rats; assay: Set I: body weight, GI and lymphoid organ weights, stomach pH after individual enzymes or mixture, Example 3; settings: day 17; for Body weight / Cecum / Distal SI / Liver / Pancreas / Proximal SI / SI length / Spleen / Stomach / Thymus: 3 days treatment; for pH: stomach contents
Procedure: All experiments were performed in young suckling rats by feeding them from 14 days of age via stomach tube for 3 continuous days (ones a day). One day after last treatment rats were euthanized and plasma and organs proceeded to study structural and functional changes of gastrointestinal system.
The pups were kept with their dam until dissection day (day 17).
In this set suckling pups were divided into five groups; control (water) amylase 10 000 USP/rat/day, lipase 4 000 USP/rat/day, protease 15 000 USP/rat/day, and mixture of these enzyme with corresponding activities per rat and day. This study was evaluating the effects of different pancreatic-like enzymes on the gut maturation and functioning and had 3 individual litters; n=12, n=10 and n=13, totally n=7 pups per each group. Each of the enzymes (Amylase, Protease and Lipase) (Sigma Aldrich) was available in the powder form and was resolved in distilled water prior to stomach feeding during days 14, 15 and 16. The volume of administered enzymes and distilled water (for control groups) was 0.01 ml/g BW. Each time, prior to the feeding procedure, the pups were weighed. […] Then 3 hours later, the pups were sedated with CO2 and anaesthetized by subcutaneous injection with a mixture of ketamine (Ketalar®, Pfizer, New York, USA, NaCl and azaperone (Stresnil®, Janssen Pharmaceutica, Beerse, Belgium), 0.01 ml/g BW. After opening the abdomen of the rats, 1 ml of blood was collected from heart by using syringes containing protease inhibitor and EDTA (50 μl) as anticoagulant and was transferred into ice-chilled tubes. After this, the pancreas was immediately dissected and rinsed with cold 0.9% NaCl, weighted and stored at −70 C. The SI was removed and its length was measured then divided into two halves, proximal and distal. Each segment was flushed out with cold 0.9% NaCl to clean the lumen and was then weighed separately. […] The stomach was removed and its content was collected into the tube (for measuring its pH) and frozen. Then cecum was dissected out, opened, rinse and weighed as well as liver and lymphoid organs spleen and thymus were dissected and weighted.
The contents of the stomach were de-frozen and then resolved with 1 ml of cold 0.9% NaCl. After resolving, they were centrifuged and the pH was measured in the supernatant using pH-meter.
All data are presented as mean±standard deviation (SD). Statistical comparisons between each group and control group were performed using the t-test. Results were considered as significant when P<0.05.

[11] = system: suckling rats; assay: Papain vs microbial protease: body and organ weight, Example 8; format: in vivo, Rattus norvegicus
Text: as §4, §5

[12] = system: suckling rats; assay: Papain vs microbial protease: intestinal disaccharidase activity in proximal SI, Example 8; format: in vivo, Rattus norvegicus; settings: proximal part of SI, in words (FIG. 13)
Text: as §4, §5
The activities of the brush-border enzymes lactase, maltase and sucrase were analyzed in the proximal part of the SI in groups treated with papain and protease.

[13] = drug one hour prior to Creon, in words
[14] = 10000 USP/animal, days 14-16, day 17

## Cc1ccc(-c2cc(C(F)(F)F)nn2-c2ccc(S(N)(=O)=O)cc2)cc1 [Celexosib, Celecoxib]
[1]
  Small intestine Distal wt: 14.45 ^A mg/g bwt
  Small intestine Length: 1.64 cm/g bwt
  Small intestine Proximal wt: 16.32 ^A mg/g bwt
[2]
  Mature epithelium: 7.98^A %
[3]
  Disaccharidase specific activity, Lactase: 100.91 U/mg
  Disaccharidase specific activity, Maltase: 72.24 ^A U/mg
  Disaccharidase specific activity, Sucrase: 1.28 ^A U/mg
[4]
  half life: 12 h

## CC(C)Cc1ccc(C(C)C(=O)O)cc1 (centres unmarked) [Ibuprofen]
[1]
  Small intestine Distal wt: 13.81 ^A mg/g bwt
  Small intestine Length: 1.60 cm/g bwt
  Small intestine Proximal wt: 16.24 ^A mg/g bwt
[1]; [13]
  effect of drug pre-treatment on the effect of Creon on intestinal weight and length: could not be cancelled
[2]
  Mature epithelium: 8.78^A %
[2]; [13]
  effect of drug pre-treatment on mature cells (morphometric analysis) under Creon: unaffected
[3]
  Disaccharidase specific activity, Lactase: 114.17 U/mg
  Disaccharidase specific activity, Maltase: 82.75 ^A U/mg
  Disaccharidase specific activity, Sucrase: 1.12 ^A U/mg
[3]; [13]
  effect of drug pre-treatment on disaccharidases activities under Creon: unaffected

## bromelain
[5]
  intestinal macromolecular absorptive capacity: remained in a higher level

## α-Amylase from Aspergillus oryzae
[6]
  foetal-type epithelium with vacuolated enterocytes along the villi: 77%
[7]
  lactase activity: higher
  maltase activity: stayed in a lower level
  sucrase activity: stayed in a lower level
[8]
  uptake of marker molecule BIgG to plasma: remained in a higher level
  uptake of marker molecule BSA to plasma: remained in a higher level
[9]
  growth of young rats in comparison to lipase and control group: clear effect of amylase to stimulate growth
[10]
  Body weight: 37.2 ± 2.3 gr
  Cecum: 2.5 ± 0.3 mg/g BW
  Distal SI: 15.2 ± 2.3 mg/g BW
  Liver: 33.7 ± 1.3 mg/g BW
  Pancreas: 3.5 ± 0.4 mg/g BW
  Proximal SI: 16.6 ± 1.9 mg/g BW
  SI length: 1.5 ± 0.0 cm/g BW
  Spleen: 3.6 ± 0.7 mg/g BW
  Stomach: 6.8 ± 0.4 mg/g BW
  Thymus: 5.1 ± 0.2 mg/g BW
  pH: 4.0 ± 0.2

## Lipase from B. cepacia
[6]
  foetal-type epithelium with vacuolated enterocytes along the villi: 77%
[7]
  lactase activity: higher
  maltase activity: stayed in a lower level
  sucrase activity: stayed in a lower level
[8]
  uptake of marker molecule BIgG to plasma: remained in a higher level
  uptake of marker molecule BSA to plasma: remained in a higher level
[10]
  Body weight: 36.8 ± 2.2 gr
  Cecum: 2.4 ± 0.4 mg/g BW
  Distal SI: 15.2 ± 0.9 mg/g BW
  Liver: 34.5 ± 1.8 mg/g BW
  Pancreas: 3.7 ± 0.5 mg/g BW
  Proximal SI: 17.5 ± 1.7 mg/g BW
  SI length: 1.5 ± 0.1 cm/g BW
  Spleen: 3.5 ± 0.4 mg/g BW
  Stomach: 6.9 ± 0.8 mg/g BW
  Thymus: 4.9 ± 0.8 mg/g BW
  pH: 4.0 ± 0.3

B1: trypsin (protein, UniProt P00760 24-246, looked up)
Serine protease 1: IVGGYTCGANTVPYQVSLNSGYHFCGGSLINSQWVVSAAHCYKSGIQVRLGEDNINVVEGNEQFISASKSIVHPSYNSNTLNNDIMLIKLKSAASLNSRVASISLPTSCASAGTQCLISGWGNTKSSGTSYPDVLKCLKAPILSDSSCKSAYPGQITSNMFCAGYLEGGKDSCQGDSGGPVVCSGKLQGIVSWGSGCAQKNKPGVYTKVCNYVSWIKQTIASN
notes: protease that breaks down proteins at the basic amino acids
[11]; in words
  weight of distal part of SI: increased weight
[5]
  intestinal macromolecular absorptive capacity: remained in a higher level

B2: papain (protein, UniProt P00784 134-345, looked up)
Papain: IPEYVDWRQKGAVTPVKNQGSCGSCWAFSAVVTIEGIIKIRTGNLNEYSEQELLDCDRRSYGCNGGYPWSALQLVAQYGIHYRNTYPYEGVQRYCRSREKGPYAAKTDGVRQVQPYNEGALLYSIANQPVSVVLEAAGKDFQLYRGGIFVGPCGNKVDHAVAAVGYGPNYILIKNSWGTGWGENGYIRIKRGTGNSYGVCGLYTSSFYPVKN
notes: enzyme from papaya fruit (papain)
[11]; [14]
  Body weight: 33.2 ± 5.00 gr
  Cecum: 3.42 ± 0.45 mg/g BW
  Distal SI: 17.8 ± 2.5 mg/g BW
  Liver: 33.33 ± 1.52 mg/g BW
  Pncrease: 4.07 ± 0.46 mg/g BW
  Proxima SI: 21.49 ± 1.57 mg/g BW
  SI length: 1.72 ± 0.17 cm/g BW
  Spleen: 3.46 ± 0.44 mg/g BW
  Stomach: 7.13 ± 0.45 mg/g BW
  Thymus: 4.65 ± 0.92 mg/g BW
[11]; dose 10 000 USP, days 14 to 17, in words (FIG. 12)
  effect on body growth: No effect
[12]
  activity of maltase compared to control: significantly increased
  activity of sucrase compared to control: significantly increased
[5]; day 17, 3 hours after feeding
  BSA concentration in rat plasma: significantly decreased
  uptake of macromolecules, BIgG absorption: significantly lower
